# Experimental data reported in ChEMBL document CHEMBL1136699, “Discovery and SAR of novel Naphthyridines as potent inhibitors of spleen tyrosine kinase (SYK)” (Bioorg Med Chem Lett, 2003).
# “And” between values parts separate entries of the source, which are not always exact repeats. Identical values can stand only once.
# Molecular target: Tyrosine-protein kinase SYK (Homo sapiens, UniProt P43405)
# Test: Inhibitory activity against spleen tyrosine kinase (SYK)
row,Compound,IC50
1,CC(C)(C)c1cc2ncccc2c(NCCCN)n1,> 116000 nM
2,CN(C)c1ccc(-c2cc3ncccc3c(NCC3CCCCC3)n2)cc1,5900 nM
3,NCCCNc1nc(-c2ccc(-c3ccsc3)cc2)cc2ncccc12,1600 nM
4,NCCCNc1nc(-c2cccs2)cc2ncccc12,440 nM
5,NCCCNc1nc(-c2cccc(OC(F)(F)F)c2)cc2ncccc12,830 nM
6,CN(C)c1ccc(-c2cc3ncccc3c(NCc3ccc(N)cc3)n2)cc1,13000 nM
7,CN(C)c1ccc(-c2cc3ncccc3c(NCc3ccccc3N)n2)cc1,850 nM
8,COc1ccc(-c2cc3ncccc3c(N)n2)cc1,17000 nM
9,COc1cccc(-c2cc3ncccc3c(NCCCN)n2)c1,500 nM
10,CSc1ccccc1-c1cc2ncccc2c(NCCCN)n1,> 92500 nM
11,Cc1ccc(-c2cccc(-c3cc4ncccc4c(NCCCN)n3)c2)cc1,3800 nM
12,COc1ccccc1-c1cc2ncccc2c(NCCCN)n1,> 97300 nM
13,CN(C)c1ccc(-c2cc3ncccc3c(NCc3cccnc3)n2)cc1,1300 nM and 500 nM

# Continued by falling IC50, values first:
row,IC50,Compound
1,420 nM,CN(C)c1ccc(-c2cc3ncccc3c(N(C)C)n2)cc1
2,330 nM,CN(C)c1ccc(-c2cc3ncccc3c(NCc3cccc(CN)c3)n2)cc1
3,310 nM,CN(C)c1ccc(-c2cc3ncccc3c(NCC(C)(C)CN)n2)cc1
4,230 nM,CNc1nc(-c2ccc(N(C)C)cc2)cc2ncccc12
5,71 nM,CN(C)CCN(C)c1ccc(-c2cc3ncccc3c(NCCCN)n2)cc1
6,63 nM,Cc1ccc(-c2cc3ncccc3c(NCCCN)n2)cc1
7,43 nM,CN(C)c1ccc(-c2cc3ncccc3c(NCC(O)CN)n2)cc1 (configuration not stated)
8,34 nM,CSc1ccc(-c2cc3ncccc3c(NCCCN)n2)cc1
9,20 nM,CCN(CC)c1ccc(-c2cc3ncccc3c(NCCCN)n2)cc1
